Measurements taken from ChEMBL document CHEMBL1201862, “PubChem BioAssay data set” (2004).
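Five concentrations, 48 hours, 96-well plates. GI50: concentration for 50% inhibition of growth.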 Active and inactive are the calls of the source. Rule as the data show it: active = GI50 up to about 1.1 µM and inactive = higher.

Assays:
Assay in all cases: inhibition of tumour cell growth, NCI panel, 48 h
NCI-H522 = tested on: NCI-H522
SF-539 = tested on: SF-539
HT-29 = tested on: HT-29
MOLT-4 = tested on: MOLT-4
NCI-H460 = tested on: NCI-H460
HOP-62 = tested on: HOP-62
HCC 2998 = tested on: HCC 2998
RXF 393 = tested on: RXF 393
SW-620 = tested on: SW-620
UACC-257 = tested on: UACC-257
COLO 205 = tested on: COLO 205
M14 = tested on: M14
A498 = tested on: A498
CCRF-CEM = tested on: CCRF-CEM
U-251 = tested on: U-251
NCI/ADR-RES = tested on: NCI/ADR-RES
UO-31 = tested on: UO-31
SK-MEL-5 = tested on: SK-MEL-5
EKVX = tested on: EKVX
SNB-75 = tested on: SNB-75
BT-549 = tested on: BT-549
HCT-15 = tested on: HCT-15
PC-3 = tested on: PC-3
TK-10 = tested on: TK-10
SN12C = tested on: SN12C
SF-295 = tested on: SF-295
LOX IMVI = tested on: LOX IMVI
IGROV-1 = tested on: IGROV-1
HL-60 = tested on: HL-60
SF-268 = tested on: SF-268
NCI-H23 = tested on: NCI-H23
SNB-19 = tested on: SNB-19
SK-MEL-28 = tested on: SK-MEL-28
KM12 = tested on: KM12
786-0 = tested on: 786-0
ACHN = tested on: ACHN
Hs-578T = tested on: Hs-578T
OVCAR-8 = tested on: OVCAR-8
NCI-H226 = tested on: NCI-H226
SK-MEL-2 = tested on: SK-MEL-2
OVCAR-5 = tested on: OVCAR-5
HOP-92 = tested on: HOP-92
HCT-116 = tested on: HCT-116
MDA-MB-435 = tested on: MDA-MB-435
OVCAR-4 = tested on: OVCAR-4
MCF7 = tested on: MCF7
UACC-62 = tested on: UACC-62
MDA-MB-231 = tested on: MDA-MB-231
A549 = tested on: A549
SK-OV-3 = tested on: SK-OV-3
SR = tested on: SR
MDA-N = tested on: MDA-N
Malme-3M = tested on: Malme-3M
OVCAR-3 = tested on: OVCAR-3
CAKI-1 = tested on: CAKI-1
K562 = tested on: K562
DU-145 = tested on: DU-145

CC(C)(Br)C(=O)N1CCN(C(c2ccccc2)c2ccccc2)CC1
GI50 (NCI-H522): 85.7 µM (inactive) | GI50 (SF-539): > 100 µM (inactive) | GI50 (HT-29): 39.5 µM (inactive) | GI50 (MOLT-4): 30.1 µM (inactive) | GI50 (NCI-H460): > 100 µM (inactive) | GI50 (HOP-62): 43.5 µM (inactive) | GI50 (HCC 2998): > 100 µM (inactive) | GI50 (RXF 393): 31.3 µM (inactive) | GI50 (SW-620): > 100 µM (inactive) | GI50 (UACC-257): 41.9 µM (inactive) | GI50 (COLO 205): > 100 µM (inactive) | GI50 (M14): > 100 µM (inactive) | GI50 (A498): > 100 µM (inactive) | GI50 (CCRF-CEM): 49.2 µM (inactive) | GI50 (U-251): > 100 µM (inactive) | GI50 (NCI/ADR-RES): > 100 µM (inactive) | GI50 (UO-31): 68.7 µM (inactive) | GI50 (SK-MEL-5): 61.4 µM (inactive) | GI50 (EKVX): 40.6 µM (inactive) | GI50 (SNB-75): > 100 µM (inactive) | GI50 (BT-549): > 100 µM (inactive) | GI50 (HCT-15): 64.9 µM | GI50 (PC-3): 50.1 µM (inactive) | GI50 (TK-10): > 100 µM (inactive) | GI50 (SN12C): 84.9 µM (inactive) | GI50 (SF-295): > 100 µM (inactive) | GI50 (LOX IMVI): > 100 µM (inactive) | GI50 (IGROV-1): > 100 µM (inactive) | GI50 (HL-60): 21.5 µM (inactive) | GI50 (SF-268): 64 µM (inactive) | GI50 (NCI-H23): > 100 µM (inactive) | GI50 (SNB-19): > 100 µM (inactive) | GI50 (SK-MEL-28): > 100 µM (inactive) | GI50 (KM12): 16.2 µM (inactive) | GI50 (786-0): > 100 µM (inactive) | GI50 (ACHN): > 100 µM (inactive) | GI50 (Hs-578T): 22.6 µM (inactive) | GI50 (OVCAR-8): > 100 µM (inactive) | GI50 (NCI-H226): 95.1 µM (inactive) | GI50 (SK-MEL-2): > 100 µM (inactive) | GI50 (OVCAR-5): > 100 µM (inactive) | GI50 (HOP-92): 68.4 µM (inactive) | GI50 (HCT-116): 32.2 µM (inactive) | GI50 (MDA-MB-435): > 100 µM (inactive) | GI50 (OVCAR-4): > 100 µM (inactive) | GI50 (MCF7): 24.3 µM (inactive) | GI50 (UACC-62): > 100 µM (inactive) | GI50 (MDA-MB-231): > 100 µM (inactive) | GI50 (A549): > 100 µM (inactive) | GI50 (SK-OV-3): > 100 µM (inactive) | GI50 (SR): 66.2 µM (inactive) | GI50 (MDA-N): > 100 µM (inactive) | GI50 (Malme-3M): > 100 µM (inactive) | GI50 (OVCAR-3): 19.8 µM (inactive) | GI50 (CAKI-1): 84.1 µM (inactive) | GI50 (K562): > 100 µM (inactive) | GI50 (DU-145): 50.6 µM (inactive)
